Legend:
Assay in all cases: combination Emax (second highest fraction inhibited in the dose matrix, 72 h); higher = more inhibition; extreme values may be limits of the assay
[1] = tested on: WSU-NHL (B-Cell Non-Hodgkin's Lymphoma)
Outline: (§1)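 After 24 hours at 37°C and 5% CO2 in 1536-well plates, cells in DMEM/F12 or RPMI plus 10% FBS received two-drug dose matrices for 72 hours. Viability came from CellTiter-Glo 2.0 luminescence and was scaled as inhibition, anchored at 0 by vehicle wells and at 1 by blank wells. Combination Emax is taken as the second-highest inhibition in the matrix, and Bliss excess as the observed combination effect less EA + EB − EA·EB, with EA and EB the single-agent effects.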

[2] = tested on: LOXIMVI (Melanoma)
Outline: as §1

[3] = tested on: L-428 (Hodgkin's Lymphoma)
Outline: as §1

[4] = tested on: NUGC-4 (Gastric Carcinoma)
Outline: as §1

[5] = tested on: BFTC-909 (Kidney Carcinoma)
Outline: as §1

[6] = tested on: TGBC1TKB (Biliary Tract Carcinoma)
Outline: as §1

[7] = tested on: BPH-1 (Non-Cancerous)
Outline: as §1

[8] = tested on: SW1573 (Lung Adenocarcinoma)
Outline: as §1

[9] = tested on: ALL-PO (B-Lymphoblastic Leukemia)
Outline: as §1

[10] = tested on: LS-123 (Colorectal Carcinoma)
Outline: as §1

[11] = tested on: HH (T-Cell Non-Hodgkin's Lymphoma)
Outline: as §1

[12] = tested on: SNU-449 (Hepatocellular Carcinoma)
Outline: as §1

[13] = tested on: HeLa (Cervical Carcinoma)
Outline: as §1

[14] = tested on: EW-11 (Ewing's Sarcoma)
Outline: as §1

[15] = tested on: CAL-72 (Osteosarcoma)
Outline: as §1

[16] = tested on: HuCCT1 (Biliary Tract Carcinoma)
Outline: as §1

[17] = tested on: OE21 (Esophageal Squamous Cell Carcinoma)
Outline: as §1

[18] = tested on: ESS-1 (Other Solid Carcinomas)
Outline: as §1

[19] = tested on: LNZTA3WT4 (Low Grade Glioma)
Outline: as §1

[20] = tested on: FTC-133 (Thyroid Gland Carcinoma)
Outline: as §1

Row | SMILES | combination Emax [1] | combination Emax [2] | combination Emax [3] | combination Emax [4] | combination Emax [5] | combination Emax [6] | combination Emax [7] | combination Emax [8] | combination Emax [9] | combination Emax [10] | combination Emax [11] | combination Emax [12] | combination Emax [13] | combination Emax [14] | combination Emax [15] | combination Emax [16] | combination Emax [17] | combination Emax [18] | combination Emax [19] | combination Emax [20]
1 | C=CCn1c(=O)c2cnc(Nc3ccc(N4CCN(C)CC4)cc3)nc2n1-c1cccc(C(C)(C)O)n1 [AZD1775] + C1CN(CCC1(C(=O)N[C@@H](CCO)C2=CC=C(C=C2)Cl)N)C3=NC=NC4=C3C=CN4 [Capivasertib] (first compound max 3 µM, partner max 3 µM) | 1 | 0.793 | 0.759 | 0.574 | 0.922 | 0.434 | 0.929 | 0.572 | 0.754 | 0.636 | 0.567 | 0.271 | 0.877 | 0.69 | 0.845 | 0.741 | 0.747 | 0.949 | 0.804 | –
2 | COc1cccc2c1C(=O)c1c(O)c3c(c(O)c1C2=O)C[C@@](O)(C(=O)CO)C[C@@H]3O[C@H]1C[C@H](N)[C@H](O)[C@H](C)O1 [Doxorubicin] + Cc1cc2ncnn2cc1Nc1ncc2c(n1)n(C1CCOCC1)c(=O)n2C [AZD7648] (first compound max 1 µM, 7x7, partner max 10 µM) | 1 | 0.952 | 0.937 | 0.393 | 0.853 | 0.366 | 0.951 | 0.533 | 1 | 0.87 | 0.297 | 0.173 | 0.499 | 0.893 | 0.663 | 0.746 | 0.593 | 1 | 0.647 | 0.92
3 | CC1(C)CCC(CN2CCN(c3ccc(C(=O)NS(=O)(=O)c4ccc(NCC5CCOCC5)c([N+](=O)[O-])c4)c(Oc4cnc5[nH]ccc5c4)c3)CC2)=C(c2ccc(Cl)cc2)C1 [Venetoclax] + C1CN(CCC1(C(=O)N[C@@H](CCO)C2=CC=C(C=C2)Cl)N)C3=NC=NC4=C3C=CN4 [Capivasertib] (first compound max 1 µM, 7x7, partner max 3 µM) | 0.977 | 0.247 | 0.0426 | 0.121 | 0.554 | 0.309 | 0.382 | 0.257 | 0.669 | 0.34 | 0.44 | 0.222 | 0.22 | 0.711 | 0.554 | 0.24 | 0.48 | 0.891 | 0.508 | 0.358
4 | COc1cccc(OCCCN)c1-c1cc(Nc2cnc(C#N)cn2)n[nH]1 [Prexasertib] + C[C@@H]1COCCN1C2=NC(=NC(=C2)C3(CC3)[S@](=N)(=O)C)C4=C5C=CNC5=NC=C4 [AZD6738] (first compound max 1 µM, 7x7, partner max 10 µM) | 1 | 0.849 | 0.95 | 0.543 | 0.94 | 0.552 | 0.356 | 0.236 | 0.982 | 0.796 | 0.674 | 0.282 | 0.864 | 0.734 | 0.869 | 0.835 | 0.745 | 1 | 0.91 | 0.861
5 | C[C@@H]1COCCN1c1cc(C2([S@](C)(=N)=O)CC2)nc(-c2ccnc3[nH]ccc23)n1 [AZD6738] + O=C(c1cc(Cc2n[nH]c(=O)c3ccccc23)ccc1F)N1CCN(C(=O)C2CC2)CC1 [Olaparib] (first compound max 10 µM, 7x7, partner max 10 µM) | 0.989 | 0.978 | 0.728 | 0.551 | 0.728 | 0.397 | 0.51 | 0.217 | 0.955 | 0.764 | 0.209 | 0.234 | 0.713 | 0.72 | 0.8 | 0.784 | 0.661 | 0.979 | 0.778 | 0.672
6 | CN(C)CCCOc1ccc(-c2ccc3ncc4c(c3c2)n(C2CCOCC2)c(=O)n4C)cn1 [AZD0156] + O=C(c1cc(Cc2n[nH]c(=O)c3ccccc23)ccc1F)N1CCN(C(=O)C2CC2)CC1 [Olaparib] (first compound max 3 µM, partner max 3 µM) | 0.879 | 0.377 | 0.228 | 0.286 | 0.527 | 0.157 | 0.512 | 0.162 | 0.505 | 0.37 | 0.038 | 0.0695 | 0.131 | 0.539 | 0.416 | 0.202 | 0.283 | 0.489 | 0.206 | –
7 | CN(CCO)CC[C@H](CSc1ccccc1)Nc1ccc(S(=O)(=O)NC(=O)c2ccc(N3CCC([C@@H](O)c4ccccc4-c4ccc(Cl)cc4)CC3)cc2)cc1S(=O)(=O)C(F)(F)F [AZD4320] + Cn1cnc2c(F)c(Nc3ccc(Br)cc3Cl)c(C(=O)NOCCO)cc21 [Selumetinib] (first compound max 1 µM, 7x7, partner max 3 µM) | 0.885 | 0.689 | 0.737 | 0.766 | 0.473 | 0.679 | 0.784 | 0.575 | 1 | – | 0.3 | 0.221 | 0.397 | 0.934 | 0.51 | 0.571 | 0.413 | 0.851 | 0.329 | 0.74
8 | CN(CCO)CC[C@H](CSc1ccccc1)Nc1ccc(S(=O)(=O)NC(=O)c2ccc(N3CCC([C@@H](O)c4ccccc4-c4ccc(Cl)cc4)CC3)cc2)cc1S(=O)(=O)C(F)(F)F [AZD4320] + C1CN(CCC1(C(=O)N[C@@H](CCO)C2=CC=C(C=C2)Cl)N)C3=NC=NC4=C3C=CN4 [Capivasertib] (first compound max 1 µM, 7x7, partner max 3 µM) | 1 | 0.202 | 0.785 | 0.0873 | 0.346 | 0.466 | 0.562 | 0.296 | 0.97 | – | 0.417 | 0.0999 | 0.0628 | 0.837 | 0.315 | 0.121 | 0.441 | 0.579 | 0.218 | 0.517
9 | CN(CCO)CC[C@H](CSc1ccccc1)Nc1ccc(S(=O)(=O)NC(=O)c2ccc(N3CCC([C@@H](O)c4ccccc4-c4ccc(Cl)cc4)CC3)cc2)cc1S(=O)(=O)C(F)(F)F [AZD4320] + C[C@@H](Nc1cc(F)cc(F)c1)c1cc(C(=O)N(C)C)cc2c(=O)cc(N3CCOCC3)oc12 [AZD8186] (first compound max 1 µM, 7x7, partner max 3 µM) | 1 | 0.507 | 0.748 | 0.564 | 0.595 | 0.802 | 0.733 | 0.577 | 1 | – | 0.455 | 0.313 | 0.359 | 0.938 | 0.487 | 0.35 | 0.216 | 0.825 | 0.247 | 0.803
10 | CN(CCO)CC[C@H](CSc1ccccc1)Nc1ccc(S(=O)(=O)NC(=O)c2ccc(N3CCC([C@@H](O)c4ccccc4-c4ccc(Cl)cc4)CC3)cc2)cc1S(=O)(=O)C(F)(F)F [AZD4320] + CN(C)CCCOc1ccc(-c2ccc3ncc4c(c3c2)n(C2CCOCC2)c(=O)n4C)cn1 [AZD0156] (first compound max 1 µM, 7x7, partner max 1 µM) | 0.866 | 0.366 | 0.828 | 0.174 | 0.239 | 0.492 | 0.474 | 0.128 | 0.97 | – | 0.274 | 0.15 | 0.0679 | 0.854 | 0.332 | 0.251 | 0.158 | 0.478 | 0.0987 | 0.44
11 | CN(CCO)CC[C@H](CSc1ccccc1)Nc1ccc(S(=O)(=O)NC(=O)c2ccc(N3CCC([C@@H](O)c4ccccc4-c4ccc(Cl)cc4)CC3)cc2)cc1S(=O)(=O)C(F)(F)F [AZD4320] + C[C@@H]1COCCN1C2=NC(=NC(=C2)C3(CC3)[S@](=N)(=O)C)C4=C5C=CNC5=NC=C4 [AZD6738] (first compound max 1 µM, 7x7, partner max 10 µM) | 0.968 | 0.892 | 0.956 | 0.739 | 0.997 | 0.666 | 0.441 | 0.555 | 1 | – | 0.404 | 0.19 | 0.717 | 0.957 | 0.932 | 0.765 | 0.84 | 0.992 | 0.804 | 0.947
12 | CN(CCO)CC[C@H](CSc1ccccc1)Nc1ccc(S(=O)(=O)NC(=O)c2ccc(N3CCC([C@@H](O)c4ccccc4-c4ccc(Cl)cc4)CC3)cc2)cc1S(=O)(=O)C(F)(F)F [AZD4320] + C=CCn1c(=O)c2cnc(Nc3ccc(N4CCN(C)CC4)cc3)nc2n1-c1cccc(C(C)(C)O)n1 [AZD1775] (first compound max 1 µM, partner max 1 µM) | 0.995 | 0.691 | 0.983 | 0.374 | 0.905 | 0.508 | 0.709 | 0.698 | 1 | – | 0.802 | 0.138 | 0.722 | 0.949 | 0.782 | 0.807 | 0.641 | 1 | 0.889 | 0.919

Reference: the supplement of paper PMC11061612
